Measured values as given in patent US11903912B2, “Composition for preventing and treating breast cancer including selenopsammaplin A as active ingredients” (Seoul National University R & DB Foundation, priority 2019, dated 2024).
pIC50: −log10 of the molar value.

Experiments:
Type in all cases: cell-based
[1] = system: SK-HEP-1 human liver cancer cells; assay: SRB cytotoxicity test, SK-HEP-1; conditions: SRB assay, cultured 3 days
Experimental: (§1) A cytotoxicity test was performed using synthesized selenopsammaplin A and derivatives thereof (Lee S K et al […] Chem Biol Interact 115:215-28).
(§2) The cytotoxicity test was performed on a total of five representative cancer cell lines. The cytotoxicity of each compound was measured using an SRB assay method (human lung cancer cells, A549; human colon cancer cells, HCT116; human breast cancer cells, MDA-MB231; human liver cancer cells, SK-HEP-1; human gastric cancer cells, SNU638).
(§3) Each cell line was sub-cultured once or twice using Roswell Park Memorial Institute (RPMI) medium 1640 (RPMI 1640) or Dulbecco's Modified Eagle's Medium (DMEM) containing 10% fetal bovine serum (FBS) inactivated by heat, 100 units/mL of penicillin, 100 μg/mL of streptomycin, and 250 ng/mL of amphotericin B at 37° C. for 1 week under a 5% CO2 condition. All cells were […] in liquid nitrogen, and then passaged three or more times to be used in the experiment. The effects of compounds on cell growth were measured using a sulforhodamine B (SRB) method (Lee et al (1998) Chemico-Biol Interact 115:215-228).
(§4) Specifically, each human cancer cell line used in the present invention was sub-cultured in an RPMI medium containing 10% FBS, 1% PSF, and the like, and 10 μl of a sample dissolved in 10% DMSO and 190 μl (4-5×10^4 cells/ml) of the cell suspension were added to each well of a 96-well plate and cultured for 3 days. 190 μl of the cell suspension was added to at least 16 wells and cultured for 30 minutes, and used as a zero-day control. The cultured cells were fixed with 10% trichloroacetic acid (TCA) and then stained with an SRB solution, and the staining solution was dissolved with 10 mM Tris-base, and then absorbance at 515 nm was measured. Using the case of culturing in 10% DMSO as a control, cell viability according to each test material treatment was measured using Equation 1 below. Etoposide was used as a positive control. % Viability=(OD(sample)−OD(0-day))/(OD(10% DMSO)−OD(0-day))×100 [Equation 1]
(§5) Assuming that a control not-treated with the sample was set at 100%, the values of sample-treated groups were expressed as percentage with respect to the control, and each test material treatment results were obtained as the mean±SEM of two or three tests. The IC50 value is the concentration of the test material for a 50% survival rate.

[2] = system: HCT116 human colon cancer cells; assay: SRB cytotoxicity test, HCT116; conditions: SRB assay, cultured 3 days
Experimental: as §1, §2, §3, §4, §5

[3] = system: MDA-MB231 human breast cancer cells; assay: SRB cytotoxicity test, MDA-MB231; conditions: SRB assay, cultured 3 days
Experimental: as §1, §2, §3, §4, §5

[4] = system: A549 human lung cancer cells; assay: SRB cytotoxicity test, A549; conditions: SRB assay, cultured 3 days
Experimental: as §1, §2, §3, §4, §5

[5] = system: SNU638 human gastric cancer cells; assay: SRB cytotoxicity test, SNU638; conditions: SRB assay, cultured 3 days
Experimental: as §1, §2, §3, §4, §5

DOT1L = target: T1, DOT1L (Homo sapiens, UniProt Q8TEK3); assay: Inhibition of DOT1L methylation (H3K79) by western blotting; conditions: breast cancer cell line, FIG. 3
T1 construct: based on the finding that DOT1L was overexpressed in the breast cancer cell line; endogenous in cells
Description: As confirmed in Example 1, based on the finding that DOT1L was overexpressed in the breast cancer cell line, the effects of the derivatives of the present invention on the methylation of the histone 3 lysine 79 (H3K79) residue, which is an in-vivo target of DOT1L, were examined by western blotting.

T1 sequence (Q8TEK3 whole entry): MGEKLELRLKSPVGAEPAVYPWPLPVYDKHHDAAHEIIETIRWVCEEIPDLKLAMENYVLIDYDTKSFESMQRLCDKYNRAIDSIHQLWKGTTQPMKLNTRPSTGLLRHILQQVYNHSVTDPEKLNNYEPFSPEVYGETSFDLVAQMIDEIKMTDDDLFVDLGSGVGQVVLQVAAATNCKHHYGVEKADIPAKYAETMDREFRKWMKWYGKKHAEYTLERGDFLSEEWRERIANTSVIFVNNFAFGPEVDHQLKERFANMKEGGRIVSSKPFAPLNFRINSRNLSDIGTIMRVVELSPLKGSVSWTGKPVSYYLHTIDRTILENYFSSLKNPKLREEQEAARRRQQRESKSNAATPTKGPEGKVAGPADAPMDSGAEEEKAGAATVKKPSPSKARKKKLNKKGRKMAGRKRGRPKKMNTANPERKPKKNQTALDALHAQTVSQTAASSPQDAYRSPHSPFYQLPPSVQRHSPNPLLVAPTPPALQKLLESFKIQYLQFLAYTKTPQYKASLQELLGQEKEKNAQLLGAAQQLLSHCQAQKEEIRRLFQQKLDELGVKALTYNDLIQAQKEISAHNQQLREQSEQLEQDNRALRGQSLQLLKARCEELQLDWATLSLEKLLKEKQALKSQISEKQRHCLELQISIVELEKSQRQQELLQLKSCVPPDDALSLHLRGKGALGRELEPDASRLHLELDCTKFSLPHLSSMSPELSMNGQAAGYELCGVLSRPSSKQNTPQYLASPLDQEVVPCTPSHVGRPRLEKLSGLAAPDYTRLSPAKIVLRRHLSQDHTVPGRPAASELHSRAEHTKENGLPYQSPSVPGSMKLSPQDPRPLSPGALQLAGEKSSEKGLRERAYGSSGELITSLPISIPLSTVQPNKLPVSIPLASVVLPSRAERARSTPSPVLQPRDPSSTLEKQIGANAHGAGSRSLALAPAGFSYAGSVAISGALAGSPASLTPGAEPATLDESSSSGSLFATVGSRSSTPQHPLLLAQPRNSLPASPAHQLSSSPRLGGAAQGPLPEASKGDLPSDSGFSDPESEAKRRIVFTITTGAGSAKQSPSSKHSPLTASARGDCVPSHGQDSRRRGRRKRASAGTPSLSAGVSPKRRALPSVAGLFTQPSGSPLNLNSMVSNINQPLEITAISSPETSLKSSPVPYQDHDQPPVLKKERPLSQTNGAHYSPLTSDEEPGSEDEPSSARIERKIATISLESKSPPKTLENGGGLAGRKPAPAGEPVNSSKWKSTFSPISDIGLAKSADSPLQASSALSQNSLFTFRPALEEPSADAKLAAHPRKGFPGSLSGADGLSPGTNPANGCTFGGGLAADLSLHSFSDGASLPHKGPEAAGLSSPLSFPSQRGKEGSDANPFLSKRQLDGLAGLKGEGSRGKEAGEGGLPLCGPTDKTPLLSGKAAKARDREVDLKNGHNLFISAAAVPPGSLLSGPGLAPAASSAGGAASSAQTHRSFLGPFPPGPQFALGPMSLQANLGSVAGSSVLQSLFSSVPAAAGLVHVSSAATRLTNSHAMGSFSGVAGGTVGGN

**Q.** “(2E,2′E)-N,N′-(diselenediylbis(ethane-2,1-diyl))bis(2-(hydroxyimino)-3-(4-nitrophenyl)propanamide) [Compound 11]” was tested. Which pIC50 [1] did it give?
**A.** The pIC50 was 6.77.

**Q.** What about the pIC50 [2] of the same compound?
**A.** Its pIC50 is 7.05.

**Q.** What about the pIC50 [3] of the same compound?
**A.** Its pIC50 is 7.05.

**Q.** What about the pIC50 [4] of the same compound?
**A.** Its pIC50 is 7.05.

**Q.** And the pIC50 [5]?
**A.** The pIC50 was 7.22.

**Q.** And the “inhibitory effect on H3K79 methylation” value (DOT1L)?
**A.** Its value is “excellent”.

**Q.** `O=C(NCC[Se][Se]CCNC(=O)/C(Cc1ccc(F)cc1)=N/O)/C(Cc1ccc(F)cc1)=N/O` [Compound 4, (2E,2′E)-N,N′-(diselenediylbis(ethane-2,1-diyl))bis(3-(4-fluorophenyl)-2-(hydroxyimino)propanamide)] was tested. Which pIC50 [1] did it give?
**A.** Its pIC50 is 6.85.

**Q.** What about the pIC50 [2] of the same compound?
**A.** Its pIC50 is 6.96.

**Q.** What about the pIC50 [3] of the same compound?
**A.** The pIC50 was 6.89.

**Q.** And the pIC50 [4]?
**A.** Its pIC50 is 7.00.

**Q.** And the pIC50 [5]?
**A.** Its pIC50 is 7.15.

**Q.** With `COc1cc([C@@H]2c3cc4c(cc3[C@@H](O[C@@H]3O[C@@H]5CO[C@@H](C)O[C@H]5[C@H](O)[C@H]3O)[C@H]3COC(=O)[C@H]23)OCO4)cc(OC)c1O` [Etoposide, reference compound] as the compound, how does the pIC50 ([1]; SK-HEP1, 72 h) read?
**A.** Its pIC50 is 6.40.

**Q.** And the pIC50 ([2]; HCT-116, 72 h)?
**A.** Its pIC50 is 5.92.

**Q.** And the pIC50 ([3]; MDA-MB-231, 72 h)?
**A.** The pIC50 was 5.06.

**Q.** What about the pIC50 ([4]; A549, 72 h) of the same compound?
**A.** The pIC50 was 6.52.

**Q.** What about the pIC50 ([5]; SNU-638, 72 h) of the same compound?
**A.** The pIC50 was 6.70.

**Q.** What does the source list for `O=C(NCC[Se][Se]CCNC(=O)/C(Cc1ccc(O)c(Br)c1)=N/O)/C(Cc1ccc(O)c(Br)c1)=N/O` [Compound 1, (2E,2′E)-N,N′-(diselenediylbis(ethane-2,1-diyl))bis(3-(3-bromo-4-hydroxyphenyl)-2-(hydroxyimino)propanamide)]?
**A.** pIC50 [1]: 6.68; pIC50 [3]: 6.80; pIC50 [4]: 7.52; pIC50 [5]: 7.70; inhibitory effect on H3K79 methylation (DOT1L): excellent

**Q.** “(2E,2′E)-N,N′-(diselenediylbis(ethane-2,1-diyl))bis(3-(3,4-difluorophenyl)-2-(hydroxyimino)propanamide) [Compound 5]” was tested. Which pIC50 [1] did it give?
**A.** Its pIC50 is 6.57.

**Q.** What about the pIC50 [2] of the same compound?
**A.** Its pIC50 is 6.74.

**Q.** And the pIC50 [3]?
**A.** The pIC50 was 6.38.

**Q.** What about the pIC50 [4] of the same compound?
**A.** Its pIC50 is 6.48.

**Q.** What about the pIC50 [5] of the same compound?
**A.** Its pIC50 is 7.30.

**Q.** With “(2E,2′E)-N,N′-(diselenediylbis(ethane-2,1-diyl))bis(3-(3-fluoro-4-hydroxyphenyl)-2-(hydroxyimino)propanamide) [Compound 14]” as the compound, how does the pIC50 [1] read?
**A.** Its pIC50 is 6.89.

**Q.** And the pIC50 [3]?
**A.** Its pIC50 is 6.72.

**Q.** What about the pIC50 [4] of the same compound?
**A.** The pIC50 was 7.70.

**Q.** What about the pIC50 [5] of the same compound?
**A.** Its pIC50 is 7.70.

**Q.** How did the pIC50 [1] turn out when “(2E,2′E)-N,N′-(diselenediylbis(ethane-2,1-diyl))bis(3-(3-chloro-4-hydroxyphenyl)-2-(hydroxyimino)propanamide) [Compound 13]” was run?
**A.** The pIC50 was 6.96.

**Q.** What about the pIC50 [3] of the same compound?
**A.** The pIC50 was 6.77.

**Q.** What about the pIC50 [4] of the same compound?
**A.** The pIC50 was 7.70.

**Q.** What about the pIC50 [5] of the same compound?
**A.** Its pIC50 is 8.00.

**Q.** What does the source list for “(2E,2′E)-N,N′-(diselenediylbis(ethane-2,1-diyl))bis(3-(4-tert-butyl)phenyl)-2-(hydroxyimino)propanamide) [Compound 12]”?
**A.** pIC50 [1]: 6.72; pIC50 [2]: 6.89; pIC50 [3]: 7.00; pIC50 [4]: 7.00; pIC50 [5]: 6.55; inhibitory effect on H3K79 methylation (DOT1L): excellent

**Q.** “(2E,2′E)-N,N′-(diselenediylbis(ethane-2,1-diyl))bis(3-(4-chlorophenyl)-2-(hydroxyimino)propanamide) [Compound 6]” was tested. Which pIC50 [1] did it give?
**A.** The pIC50 was 6.48.

**Q.** What about the pIC50 [2] of the same compound?
**A.** The pIC50 was 6.55.

**Q.** What about the pIC50 [3] of the same compound?
**A.** The pIC50 was 6.48.

**Q.** What about the pIC50 [4] of the same compound?
**A.** The pIC50 was 6.60.

**Q.** And the pIC50 [5]?
**A.** Its pIC50 is 6.66.

**Q.** How did the pIC50 [2] turn out when `O=C(NCC[Se][Se]CCNC(=O)/C(Cc1ccc(Br)cc1)=N/O)/C(Cc1ccc(Br)cc1)=N/O` [Compound 8, (2E,2′E)-N,N′-(diselenediylbis(ethane-2,1-diyl))bis(3-(4-bromophenyl)-2-(hydroxyimino)propanamide)] was run?
**A.** Its pIC50 is 6.77.

**Q.** What about the pIC50 [3] of the same compound?
**A.** The pIC50 was 6.41.

**Q.** What about the pIC50 [4] of the same compound?
**A.** The pIC50 was 6.51.

**Q.** And the pIC50 [5]?
**A.** Its pIC50 is 6.82.

**Q.** With “(2E,2′E)-N,N′-(diselenediylbis(ethane-2,1-diyl))bis(3-(4-benzyloxy)phenyl)-2-(hydroxyimino)propanamide) [Compound 10]” as the compound, how does the pIC50 [1] read?
**A.** The pIC50 was 6.55.

**Q.** And the pIC50 [2]?
**A.** The pIC50 was 7.00.

**Q.** And the pIC50 [3]?
**A.** Its pIC50 is 6.85.

**Q.** And the pIC50 [4]?
**A.** Its pIC50 is 6.85.

**Q.** What about the pIC50 [5] of the same compound?
**A.** The pIC50 was 6.39.

**Q.** And the “inhibitory effect on H3K79 methylation” value (DOT1L)?
**A.** Its value is “excellent”.

**Q.** With “(2E,2′E)-N,N′-(diselenediylbis(ethane-2,1-diyl))bis(3,4-dichlorophenyl)-2-(hydroxyimino)propanamide) [Compound 7]” as the compound, how does the pIC50 [1] read?
**A.** The pIC50 was 6.49.

**Q.** What about the pIC50 [2] of the same compound?
**A.** Its pIC50 is 6.28.

**Q.** What about the pIC50 [3] of the same compound?
**A.** Its pIC50 is 6.60.

**Q.** What about the pIC50 [4] of the same compound?
**A.** The pIC50 was 6.55.

**Q.** What about the pIC50 [5] of the same compound?
**A.** Its pIC50 is 6.74.

**Q.** How did the pIC50 [1] turn out when “(2E,2′E)-N,N′-(diselenediylbis(ethane-2,1-diyl))bis(3-(4-ethoxyphenyl)-2-(hydroxyimino)propanamide) [Compound 9]” was run?
**A.** Its pIC50 is 6.74.

**Q.** And the pIC50 [2]?
**A.** The pIC50 was 7.15.

**Q.** And the pIC50 [3]?
**A.** Its pIC50 is 6.70.

**Q.** And the pIC50 [4]?
**A.** Its pIC50 is 7.30.

**Q.** And the pIC50 [5]?
**A.** Its pIC50 is 7.52.

**Q.** What about the “inhibitory effect on H3K79 methylation” value (DOT1L) of the same compound?
**A.** The value was “excellent”.

**Q.** `O=C(NCCSSCCNC(=O)/C(Cc1ccc(O)c(Br)c1)=N/O)/C(Cc1ccc(O)c(Br)c1)=N/O` [Psammaplin A] was tested. Which pIC50 [1] did it give?
**A.** The pIC50 was 5.89.

**Q.** And the pIC50 [2]?
**A.** The pIC50 was 6.21.

**Q.** What about the pIC50 [3] of the same compound?
**A.** The pIC50 was 5.88.

**Q.** And the pIC50 [4]?
**A.** The pIC50 was 5.75.

**Q.** What about the pIC50 [5] of the same compound?
**A.** Its pIC50 is 6.25.

**Q.** How did the pIC50 [1] turn out when “(2E,2′E)-N,N′-(diselenediylbis(ethane-2,1-diyl))bis(2-(hydroxyimino)-3-(naphthalene-2-yl)propanamide) [Compound 3]” was run?
**A.** Its pIC50 is 6.77.

**Q.** And the pIC50 [2]?
**A.** The pIC50 was 6.92.

**Q.** What about the pIC50 [3] of the same compound?
**A.** The pIC50 was 6.72.

**Q.** What about the pIC50 [4] of the same compound?
**A.** Its pIC50 is 6.42.

**Q.** What about the pIC50 [5] of the same compound?
**A.** Its pIC50 is 6.57.
